Values of other authors in patent US20250231185A1, “Coronavirus T Cell Epitopes, Megapools and Uses Thereof” (La Jolla Institute for Immunology, priority 2021, published 2025).
Entries after “also recorded” stand apart in the source; their conditions may differ.

Tested on: CD4+ T cells
Details: cited from earlier work; for Allele(s): HLA class II allele(s) identified as MHC restriction elements of the CD4 epitope; for Dominant: SARS-CoV-2-derived CD4 epitopes, Yes = recognized by 3 or more donors/different studies; for Restriction: T cell subset (CD4 or CD8) recognizing the SARS-CoV-2 epitope

| Substance | Allele(s) | Dominant | Restriction |
| --- | --- | --- | --- |
| 16 (YRINWITGGIAIAMA) [compound 16] | DQB1*02:02, DQB1*03:01,; also recorded: DQB1*05:01, DQB1*05:02,; also recorded: DQB1*05:03, DQB1*06:02,; also recorded: DQB1*06:03, DRB1*07:01,; also recorded: DRB1*10:01, DRB1*12:01,; also recorded: DRB1*13:01, DRB1*14:01,; also recorded: DRB1*15:01, DRB1*16:01 | Yes (more dominant epitopes are defined by being recognized by 3 or more donors/different studies) | CD4 |
| 25 (TNILLNVPLHGTILT) [compound 25] | DRB1*10:01, DRB1*12:02,; also recorded: DRB1*14:01, DRB1*14:06,; also recorded: DRB1*15:01, DRB1*16:02 | Yes (more dominant epitopes are defined by being recognized by 3 or more donors/different studies) | CD4 |
| 50 (PQNQRNAPRITFGGP) [compound 50] |  |  | CD4 |
| 73 (AGNGGDAALALLLLD) [compound 73] | DQB1*03:01, DQB1*06:02 | Yes (more dominant epitopes are defined by being recognized by 3 or more donors/different studies) | CD4 |
| 78 (KKPRQKRTATKAYNV) [compound 78] |  | Yes (more dominant epitopes are defined by being recognized by 3 or more donors/different studies) | CD4 |
| 83 (RRGPEQTQGNFGDQE) [compound 83] |  |  | CD4 |
| 95 (GTWLTYTGAIKLDDK) [compound 95] |  | Yes (more dominant epitopes are defined by being recognized by 3 or more donors/different studies) | CD4 |
| 11 (NRNRFLYIIKLIFLW) [compound 11] | DQB1*02:01, DQB1*05:03,; also recorded: DRB1*03:01, DRB1*12:01 |  | CD4 |
| 74 (DAALALLLLDRLNQL) [compound 74] | DQB1*05:01, DQB1*05:03,; also recorded: DQB1*06:02, DRB1*03:01,; also recorded: DRB1*11:01, DRB1*12:01,; also recorded: DRB1*14:01, DRB1*15:01 | Yes (more dominant epitopes are defined by being recognized by 3 or more donors/different studies) | CD4 |
| 6 (LLEQWNLVIGFLFLT) [compound 6] | DQB1*02:01, DQB1*05:03 |  | CD4 |
| 68 (NKDGIIWVATEGALN) [compound 68] | DQB1*02:01, DQB1*02:02,; also recorded: DQB1*03:02, DQB1*05:03,; also recorded: DRB1*04:04, DRB1*07:01 | Yes (more dominant epitopes are defined by being recognized by 3 or more donors/different studies) | CD4 |
| 35 (IAGHHLGRCDIKDLP) [compound 35] |  | Yes (more dominant epitopes are defined by being recognized by 3 or more donors/different studies) | CD4 |
| 27 (GTILTRPLLESELVI) [compound 27] | DRB1*13:01 |  | CD4 |
| 41 (SRTLSYYKLGASQRV) [compound 41] | DRB5*01:01, DRB5*01:02 | Yes (more dominant epitopes are defined by being recognized by 3 or more donors/different studies) | CD4 |
| 70 (IWVATEGALNTPKDH) [compound 70] |  |  | CD4 |
| 57 (GVPINTNSSPDDQIG) [compound 57] |  |  | CD4 |
| 45 (RVAGDSGFAAYSRYR) [compound 45] |  |  | CD4 |
| 43 (SYYKLGASQRVAGDS) [compound 43] | DQB1*03:01, DRB1*01:01,; also recorded: DRB1*07:01 | Yes (more dominant epitopes are defined by being recognized by 3 or more donors/different studies) | CD4 |
| 92 (GMEVTPSGTWLTYTGAIKLD) [compound 92] |  | Yes (more dominant epitopes are defined by being recognized by 3 or more donors/different studies) | CD4 |
| 100 (FKDQVILLNKHIDAY) [compound 100] | DRB1*03:01, DRB1*14:01,; also recorded: DRB1*14:06, DRB1*15:01,; also recorded: DRB1*16:02 | Yes (more dominant epitopes are defined by being recognized by 3 or more donors/different studies) | CD4 |
| 31 (GAVILRGHLRIAGHH) [compound 31] | DRB1*13:01, DRB1*15:01 |  | CD4 |

| Substance | Allele(s) | Dominant | Restriction |
| --- | --- | --- | --- |
| 75 (LLLLDRLNQLESKMS) [compound 75] | DQB1*05:01, DRB1*03:01,; also recorded: DRB1*11:01, DRB1*12:01,; also recorded: DRB1*14:01, DRB1*15:01 | Yes (more dominant epitopes are defined by being recognized by 3 or more donors/different studies) | CD4 |
| 84 (FGDQELIRQGTDYKH) [compound 84] |  |  | CD4 |
| 24 (SFNPETNILLNVPLH) [compound 24] | DRB1*01:02 |  | CD4 |
| 17 (ITGGIAIAMACLVGL) [compound 17] | DQB1*03:01 |  | CD4 |
| 61 (TRRIRGGDGKMKDLS) [compound 61] |  |  | CD4 |
| 47 (YSRYRIGNYKLNTDH) [compound 47] |  |  | CD4 |
| 94 (PSGTWLTYTGAIKLD) [compound 94] | DQB1*06:03, DRB1*01:02,; also recorded: DRB1*01:03, DRB1*07:01,; also recorded: DRB1*15:01 | Yes (more dominant epitopes are defined by being recognized by 3 or more donors/different studies) | CD4 |
| 97 (LTYTGAIKLDDKDPN) [compound 97] | DRB1*07:01 |  | CD4 |
| 3 (LAILTALRLCAYCCN) [compound 3] | DRB1*01:01, DRB1*11:01 |  | CD4 |
| 33 (RGHLRIAGHHLGRCD) [compound 33] | DRB1*07:01, DRB1*13:01,; also recorded: DRB1*14:01, DRB1*15:01 | Yes (more dominant epitopes are defined by being recognized by 3 or more donors/different studies) | CD4 |
| 2 (FLLVTLAILTALRLC) [compound 2] |  |  | CD4 |
| 13 (LIFLWLLWPVTLACF) [compound 13] | DQB1*05:01, DQB1*05:03,; also recorded: DRB1*01:02 |  | CD4 |
| 60 (YYRRATRRIRGGDGK) [compound 60] | DRB1*13:01, DRB1*14:06 | Yes (more dominant epitopes are defined by being recognized by 3 or more donors/different studies) | CD4 |
| 59 (IGYYRRATRRIRGGD) [compound 59] |  | Yes (more dominant epitopes are defined by being recognized by 3 or more donors/different studies) | CD4 |
| 34 (LRIAGHHLGRCDIKD) [compound 34] |  |  | CD4 |
| 90 (ASAFFGMSRIGMEVT) [compound 90] | DQB1*05:03, DRB1*01:02,; also recorded: DRB1*14:01 | Yes (more dominant epitopes are defined by being recognized by 3 or more donors/different studies) | CD4 |
| 56 (FPRGQGVPINTNSSP) [compound 56] |  |  | CD4 |
| 22 (RLFARTRSMWSFNPE) [compound 22] | DQB1*05:03, DRB1*14:01 |  | CD4 |
| 101 (ILLNKHIDAYKTFPP) [compound 101] | DRB1*14:06, DRB1*15:01 | Yes (more dominant epitopes are defined by being recognized by 3 or more donors/different studies) | CD4 |
| 7 (NLVIGFLFLTWICLL) [compound 7] | DQB1*05:01, DRB1*01:02 |  | CD4 |
| 66 (RWYFYYLGTGPEAGL) [compound 66] |  | Yes (more dominant epitopes are defined by being recognized by 3 or more donors/different studies) | CD4 |
